Laboratory results reported in patent US4430339A, “Substituted oxiranecarboxylic acids, their preparation and their use as medicaments” (Byk Gulden Lomberg Chemische Fabrik Gesellschaft mit …, priority 1980, dated 1984).
Read-outs that look alike come from different tables or passages of the source.

Legend:
[1] = test system: blood glucose concentration; assay: Determination of glucose in the blood after a single oral administration (fasted, metabolically healthy rats); design: species or system Sprague-Dawley rats; conditions: Rattus norvegicus, read-out: Change in the blood glucose concentration (in %) in vivo (maximum, relative to the control group)
Procedure: Table I reflects investigations of the effect of representative compounds according to the invention on the blood glucose concentration of fasting, metaboically healthy rats. Column A in each case gives the maximum lowering of the blood glucose concentration of rats which have been fasted (in %, relative to the control group) which is observed in the course of 6 hours after single oral administration of 0.6 mmole of substance/kg of body weight. Column B provides data relating to acute toxicity (LD50; mice, peroral administration).
Column A = maximum change in the blood glucose concentration (in %,
relative to the control animals) in vivo in rats which have been fasted a
1. Determination of glucose in the blood after a single oral administration.
Young male Sprague-Dawley rats (body weight: 150 to 200 g) are used. The animals (6 animals per dose) are kept in Makrolon cages with up to 4 animals per cage (ambient temperature: 23° C., relative atmospheric humidity: 55%, fixed day/night rhythm [12/12 hours], standard diet: Altromin®). The rats are deprived of the feed 18 hours before the first sample of blood is taken. Water is available ad libitum. Samples of blood are taken from the postorbital plexus by puncture immediately before and 2, 4 and 6 hours after administration of the substance.
After deproteinization with perchloric acid, the glucose in the blood is determined by means of the enzymatic HK/G-6-PDH method of R. Richterich [Klinische Chemie, Theorie und Praxis, (Clinical Chemistry, Theory and Practice), 3rd edition, 1971, S. Karger Verlag, Zurich-Basle, page 275]. A control group (10 animals, treated with pure solvent) is also investigated in each case for comparison.

in vivo = conditions: mouse, po, mice p.o., observation time 7 days, read-out: Acute toxicity LD50 (converted)
Procedure: Column B provides data relating to acute toxicity (LD50; mice, peroral administration).
2. Determination of the toxicity.
Various doses of the substances (volume: 10 ml/kg) are administered orally by means of a stomach tube. The observation time is 7 days.

[2] = fasted rats, single oral administration of 0.6 mmole/kg, maximum in the course of 6 hours

Row | SMILES | change in vivo at 600 µmol/kg ([1]; po, 6 h) [%] | change in vivo at 600 µmol/kg [1, 2] [%] | LD50 (in vivo) [mg/kg]
1 | CCCCNC(=N)NC(=N)N [Serial No. 1, Buformin, reference compound] | -8 | – | –
2 | [H]/N=C(/N)N/C(=N/[H])NCCc1ccccc1 [Serial No. 2, Phenformin, reference compound] | – | -6 | –
3 | CCOC(=O)C1(CCCC2CCCCC2)CO1 (stereo not shown) [Serial No. 3, 2-(3-Cyclohexylpropyl)-oxirane-2-carboxylic acid ethyl ester] | – | -24 | 1400
4 | CCOC(=O)C1(CCCCCC2CCCCC2)CO1 (stereo not shown) [Serial No. 4, 2-(5-Cyclohexylpentyl)-oxirane-2-carboxylic acid ethyl ester] | – | -48 | 520
5 | CCOC(=O)C1(CCCC2CCCC2)CO1 (stereo not shown) [Serial No. 5, 2-(3-Cyclopentylpropyl)-oxirane-2-carboxylic acid ethyl ester] | – | -15 | 2400
6 | CCOC(=O)C1(CCCCC2CCCC2)CO1 (stereo not shown) [Serial No. 6, 2-(4-Cyclopentylbutyl)-oxirane-2-carboxylic acid ethyl ester] | – | -21 | 1600
7 | CCOC(=O)C1(CCOCCCC2CCCCC2)CO1 (stereo not shown) [Serial No. 7, 2-[2-(3-Cyclohexylpropyloxy)-ethyl]-oxirane-2-carboxylic acid ethyl ester] | – | -30 | 570
8 | CCOC(=O)C1(CCCC2CCCCCC2)CO1 (stereo not shown) [Serial No. 8, 2-(3-Cycloheptylpropyl)-oxirane-2-carboxylic acid ethyl ester] | – | -22 | 790
9 | CCOC(=O)C1(CCCCCC2CCCCCC2)CO1 (stereo not shown) [Serial No. 9, 2-(5-Cycloheptylpentyl)-oxirane-2-carboxylic acid ethyl ester] | – | -18 | 330
